Values quoted from earlier work in publication PMC3759941 (International Journal of Molecular Sciences, 2013).
Where two headings read alike, the source gives them in different places.

Test system: EeAChE

For `C[n+]1ccccc1/C=N/O` [Compound 1, 2-pyridine aldoxime methiodide], the IC50 (Table 1, mono-pyridinium reactivators) is given as 54.9 mM.
In the case of `ON=Cc1cc[n+](CCC[n+]2ccc(/C=N/O)cc2)cc1` [Compound 6, trimedoxime], the IC50 (Table 2, bis-pyridinium reactivators) is given as 51.9 mM and the IC50 (Table 3) is given as 51.9 mM.
For `ON=Cc1cc[n+](C/C=C/C[n+]2ccc(C=NO)cc2)cc1` [Compound 23], the IC50 (Table 3) is given as 36.7 mM.
